Drawing on US5486511A, “4-amino-17β-(cyclopropyloxy)androst-4-en-3-one, 4-amino-17β-(cyclopropylamino)androst-4-en-3-one and related compounds as C17-20 lyase and 5α-reductase” (Merrell Dow Pharmaceuticals Inc., priority 1994, dated 1996), this text covers Km for four molecules.

In one data set the test system is canine lyase. Put plainly: Inhibition of canine steroid C17,20 lyase (testicular microsomes). Type of data set: biochemical, dog. To be noted: substrate, dog lyase. The method, then:
(§1) The activity of the present compounds as inhibitors of steroid C17,20 lyase was established using microsomal preparations of the steroid C17,20 lyase enzyme from human or laboratory animal testes. Human testes used for this purpose were obtained from therapeutic orchiectomies. Specifically, microsomes were isolated from human, cynomolgus monkey, dog, rat or athymic nude mouse testicular tissue. The compound to be tested was dissolved in dimethyl sulfoxide and diluted in 0.05M potassium phosphate buffer to give the desired concentrations of the test compound. The potassium phosphate buffer was at pH 7.4 for the human, monkey and dog lyase assays and at pH 7.2 for the rat and athymic nude mouse lyase assays. Assays also contained 1 mM NADPH, 5 mM glucose-6-phosphate, 1 IU/ml glucose-6-phosphate dehydrogenase (an NADPH regenerating system) and microsomal protein in a total volume of 0.2 mL. Control assays contained all components including dimethyl sulfoxide, but with no test compound. All assays were performed in duplicate. […] Radioactivity in the steroid peaks was measured by a Radiomatic Model HS Flo-One detector.
(§2) The enzyme activity for each incubate was calculated from the percent conversion of substrate to products, and the results were expressed as percent inhibition of control. […] The Ki and kinact for time dependent inhibitors were determined by graphical analysis of Kitz-Wilson plots. […]

In a further data set the test system is nude mouse lyase. Put plainly: Inhibition of athymic nude mouse steroid C17,20 lyase (testicular microsomes). To be noted: substrate, athymic nude mouse enzyme. Type of data set: biochemical. The method, then: as §1, §2
For a further data set, the system named is rat lyase. Put plainly: Inhibition of rat steroid C17,20 lyase (testicular microsomes). Format: biochemical. Particulars: substrate, rat enzyme. On the procedure: as §1, §2
Substrate in data set [1]: CC(=O)[C@@]1(O)CC[C@H]2[C@@H]3CC=C4C[C@@H](O)CC[C@]4(C)[C@H]3CC[C@@]21C
Nature of the data set: Inhibition of human steroid C17,20 lyase (testicular microsomes). Type of data set: biochemical. To be noted: other: substrate, 34.0 °C. The method, then: as §1, §2

Substrate in data set [2]: CC(=O)[C@@]1(O)CC[C@H]2[C@@H]3CC=C4C[C@@H](O)CC[C@]4(C)[C@H]3CC[C@@]21C
Put plainly: Inhibition of cynomolgus monkey steroid C17,20 lyase (testicular microsomes), time dependent, Kitz-Wilson. Particulars: other: substrate, 34.0 °C. Type of data set: biochemical. The method, then:
as §1, §2

With `CC(=O)[C@@]1(O)CC[C@H]2[C@@H]3CC=C4C[C@@H](O)CC[C@]4(C)[C@H]3CC[C@@]21C` [17α-hydroxypregnenolone, reference compound], the Km in the data set on canine lyase was found to be 60 nM. As to `CC(=O)[C@@]1(O)CC[C@H]2[C@@H]3CCC4=CC(=O)CC[C@]4(C)[C@H]3CC[C@@]21C` [17α-hydroxyprogesterone, reference compound], the Km worked out at 30 nM with nude mouse lyase and 100 nM in the data set on rat lyase.

B1: human lyase (Homo sapiens) (protein)
chain: MWELVALLLLTLAYLFWPKRRCPGAKYPKSLLSLPLVGSLPFLPRHGHMHNNFFKLQKKYGPIYSVRMGTKTTVIVGHHQLAKEVLIKKGKDFSGRPQMATLDIASNNRKGIAFADSGAHWQLHRRLAMATFALFKDGDQKLEKIICQEISTLCDMLATHNGQSIDISFPVFVAVTNVISLICFNTSYKNGDPELNVIQNYNEGIIDNLSKDSLVDLVPWLKIFPNKTLEKLKSHVKIRNDLLNKILENYKEKFRSDSITNMLDTLMQAKMNSDNGNAGPDQDSELLSDNHILTTIGDIFGAGVETTTSVVKWTLAFLLHNPQVKKKLYEEIDQNVGFSRTPTISDRNRLLLLEATIREVLRLRPVAPMLIPHKANVDSSIGEFAVDKGTEVIINLWALHHNEKEWHQPDQFMPERFLNPAGTQLISPSVSYLPFGAGPRSCIGEILARQELFLIMAWLLQRFDLEVPDDGQLPSLEGIPKVVFLIDSFKVKIKVRQAWREAQAEGST
notes: microsomes were isolated from human, cynomolgus monkey, dog, rat or athymic nude mouse testicular tissue; from tissue; host or cells: human testis microsomes (therapeutic orchiectomies)
For the molecule B1, in data set [1], the Km was determined as 0.30 µM.

B2: cynomolgus monkey C17,20 lyase (Macaca fascicularis) (protein)
chain: MWELVALLLLTLAYLFWPKRRCPGAKYPKSLLSLPLVGSLPFLPRHGHMHNNFFKLQKKYGPIYSVRMGTKTTVIVGHHQLAKEVLIKKGKDFSGRPQVTTLDILSNNRKGIAFADYGAHWQLHRRLAMATFALFKDGDQKLEKIICQEISTLCDMLATHNGQTIDISFPVFVAITNVISLICFNISYKNGDPELKIVHNYNEGIIDSLGKESLVDLFPWLKVFPNKTLEKLKRHVKTRNDLLTKIFENYKEKFHSDSITNMLDVLMQAKMNSDNGNAGPDQDSELLSDNHILTTIGDIFGAGVETTTSVVKWIVAFLLHNPQVKKKLYEEIDQNVGFSRTPTISDRNRLLLLEATIREVLRIRPVAPMLIPHKANVDSSIGEFAVDKGTHVIINLWALHHNEKEWHQPDQFMPERFLNPAGTQLISPSLSYLPFGAGPRSCIGEILARQELFLIMAWLLQRFDLEVPDDGQLPSLEGNPKVVFLIDSFKVKIKVRQAWREAQAEGST
notes: microsomes were isolated from human, cynomolgus monkey, dog, rat or athymic nude mouse testicular tissue; from tissue; host or cells: cynomolgus monkey testis microsomes
For the molecule B2, the Michaelis constant (Km) in data set [2] is 0.11 µM.
